# Test results: PMC11212260, “Next-generation neuropeptide Y receptor small-molecule agonists inhibit mosquito-biting behavior” (Parasites & Vectors, 2024)
# “And” between values parts separate entries of the source, which are not always exact repeats. Equal values may be shown once. Read-outs that look alike come from different tables or passages of the source.
# Legend:
# Ae. aegypti NPYLR7 = Ae. aegypti NPYLR7 (Aedes aegypti, UniProt U5N1H5); assay: In vitro calcium (GCaMP6s) FLIPR assay in HEK293T cells transfected with NPYLR7; format: cell-based; conditions: for in vitro potency (in words): relative to reference compound TDI-012631; for RFU: assay date 1/11/20 plate 1, duplicate wells, listed as TDI-012631-CL-1
# In short: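 HEK293T cells transiently co-transfected with GCaMP6s, mouse Gqα15 and NPYLR7; FLIPR imaging every second for 5 min, compound (0–100 μM) added after 30 s baseline in HBSS + 20 mM HEPES. Response normalized to buffer (0%) and 10 μM FMRFa3 (100%); relative EC50 by four-parameter fit, replicates averaged.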
# [1] = tested on: Aedes aegypti (Orlando strain) females; assay: Host-seeking screening assay (miniport olfactometer); format: in vivo; conditions: for Attraction (relative to saline): per-compound value of Fig. 3C; for effect on host-seeking (in words): fed at a dose of 1 μM
# In short: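 Fasted Orlando-strain females fed saline meals (400 mM NaHCO3) with 1 mM ATP and test compound at 1 μM final via warmed membrane feeders; lethality counted 24 h post-meal. At 48 h, attraction to human-scented stocking plus 5% CO2 scored over 5 min, normalized to matched saline-fed controls.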
# [2] = EC50 of the individual assay date/plate (assay date), read-out: EC50
# [3] = Figure 1E Summary, third list (n = 39), read-out: Reported Metric (Summary list)
# [4] = relative EC50, percent effect relative to 10 μM FMRFa3, read-out: EC50
# [5] = summary EC50 per compound (mean over assay dates), the unit is taken from the neighbouring EC50 (uM) column, read-out: Reported Metric
# [6] = fed 1 μM in saline, tested 48 h post-meal
# Ae. aegypti NPYLR7, sequence (U5N1H5 entry or part of it): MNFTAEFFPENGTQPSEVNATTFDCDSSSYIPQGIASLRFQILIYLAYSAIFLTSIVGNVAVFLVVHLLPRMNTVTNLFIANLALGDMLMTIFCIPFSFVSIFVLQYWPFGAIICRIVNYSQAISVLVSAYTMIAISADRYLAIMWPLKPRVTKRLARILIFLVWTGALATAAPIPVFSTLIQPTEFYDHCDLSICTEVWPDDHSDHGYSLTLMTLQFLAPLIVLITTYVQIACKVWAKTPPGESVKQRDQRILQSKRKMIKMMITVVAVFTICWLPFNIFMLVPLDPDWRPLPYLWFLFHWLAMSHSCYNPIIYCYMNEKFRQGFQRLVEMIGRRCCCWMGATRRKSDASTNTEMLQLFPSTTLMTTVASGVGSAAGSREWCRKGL
smiles,measurement,setting,value
CNc1nc(NC(=N)N)nc2cc(OCc3ccccc3)c(OC)cc12 [TDI-014184],EC50,Ae. aegypti NPYLR7; [2],0.49 µM
same,EC50,Ae. aegypti NPYLR7; [3],0.49 µM
same,activation at 0.0457 µM,"Ae. aegypti NPYLR7; HEK-293T, 0.0457 uM, single replicate, normalised response",8.6%
same,activation at 11.1111 µM,"Ae. aegypti NPYLR7; HEK-293T, 11.1111 uM, single replicate, normalised response",91.4%
same,EC50,Ae. aegypti NPYLR7; [4],0.49 µM
same,in vitro potency (in words),Ae. aegypti NPYLR7,significantly improved in vitro potency
same,EC50,Ae. aegypti NPYLR7; [5],0.49 µM
same,Attraction (relative to saline),[1]; [6],0.6
Cc1nc(NC(=N)N)nc2cc(N3CCc4ccccc4C3)ccc12 [TDI-014186],EC50,Ae. aegypti NPYLR7; [2],35.5 µM
same,EC50,"Ae. aegypti NPYLR7; Figure 1E Summary, second list (n = 48), read-out: Reported Metric (Summary list)",35.5 µM
same,EC50,Ae. aegypti NPYLR7; [4],35.5 µM
same,in vitro potency (in words),Ae. aegypti NPYLR7,lower in vitro potency
same,EC50,Ae. aegypti NPYLR7; [5],35.5 µM
same,Attraction (relative to saline),[1]; [6],0.685
same,effect on host-seeking (in words),[1],reduced host-seeking behavior
"COc1ccc2c(C)nc(NC(=N)N)nc2c1 [TDI-012631, reference compound]",RFU,Ae. aegypti NPYLR7; 0.00169350878084303uM,71 RFU and 55 RFU
same,RFU,Ae. aegypti NPYLR7; 0.00508052634252909uM,71 RFU and 78 RFU
same,RFU,Ae. aegypti NPYLR7; 0.0152415790275873uM,77 RFU and 71 RFU
same,RFU,Ae. aegypti NPYLR7; 0.0457247370827618uM,80 RFU and 73 RFU
same,RFU,Ae. aegypti NPYLR7; 0.137174211248285uM,64 RFU and 79 RFU
same,RFU,Ae. aegypti NPYLR7; 0.411522633744856uM,90 RFU and 78 RFU
same,RFU,Ae. aegypti NPYLR7; 3.7037037037037uM,273 RFU and 186 RFU
same,RFU,Ae. aegypti NPYLR7; 11.1111111111111 uM,265 RFU and 324 RFU
same,RFU,Ae. aegypti NPYLR7; 33.333333 uM,286 RFU and 301 RFU
same,RFU,Ae. aegypti NPYLR7; 100 uM,368 RFU and 331 RFU
same,EC50,Ae. aegypti NPYLR7; [3],4.11 µM
same,EC50,"Ae. aegypti NPYLR7; Figure 1E, EC50 of the single assay date/plate, read-out: EC50",2.75 µM and 1.61 µM and 2.58 µM and 3.45 µM and 2.36 µM and 11.5 µM and 2.22 µM and 6.4 µM
same,EC50,"Ae. aegypti NPYLR7; Figure 1E, metric reported per compound, repeated on every replicate line, read-out: Reported Metric (EC50)",4.11 µM
same,response at 0.0051(uM),"Ae. aegypti NPYLR7; compound 0.0051 uM, single replicate well",-0.02145
same,response at 0.0152(uM),"Ae. aegypti NPYLR7; compound 0.0152 uM, single replicate well",3.235
same,response at 0.4115(uM),"Ae. aegypti NPYLR7; compound 0.4115 uM, single replicate well",-1.786
same,EC50,Ae. aegypti NPYLR7; [4],4.11 µM
same,EC50,"Ae. aegypti NPYLR7; sheet Figure 3C, unit inferred, read-out: EC50",4.11 µM
same,Host-seeking relative to saline (test compound % host-seeking/average matched saline % host-seeking),"[1]; fed 1 μM in saline, tested 48 h post-meal, individual replicates, listed as TDI-02631",1.06 and 1
same,Attraction (relative to saline),[1]; [6],0.99
same,effect on host-seeking (in words),[1],not active
